Reference: patent US4351337A, “Biodegradable, implantable drug delivery device, and process for preparing and using the same” (Arthur D. Little, Inc., priority 1980, dated 1982)
Entries after “also recorded” stand apart in the source; their conditions may differ.

Legend:
[1] = Naltrexone saturation in Earle's solution; assay type: physicochemical; settings: Earle's Balanced Salt Solution, 37° C.; read-out: saturation concentration
Method: The resulting implants were evaluated by both in vitro and in vivo techniques. In making the in vitro evaluations the films were measured for weight, thickness, and surface area, and were then rinsed briefly with Earle's Balanced Salt Solution (IX--without phenol red, Grand Island Biological Company). Individual films were placed in stoppered test tubes containing 10 ml of the Earle's solution. The tubes were placed in a shaker water bath at 37° C. and were gently agitated. Drug concentration of the solution was periodically assayed by scintillation counting techniques to permit an evaluation of the in vitro drug-release behavior of the copolymers. (The solutions were replaced sufficiently frequently that the naltrexone concentration remained far below saturation, i.e., below ~460 mg/100 ml).

[2] = Tritium excretion in urine of rats given labelled prednisolone; assay type: in vivo, rat (female CD); settings: for Tritium in urine of rats: group 3, control, s.c. injection 1.0 mg/rat
Method: These implants contained from 0.65 to 2.0 mg of radioactively-labelled prednisolone, depending on the size of the implant rectangle. The implants were sterilized by immersion in alcohol and then rinsed with sterile Earle's Balanced Salt Solution. The devices were implanted subcutaneously into the backs of two groups each of eight female CD rats (Charles River Breeding Laboratories, Inc.). To accomplish the implantations, the dorsal area was shaved, cleaned with alcohol and then a one-half inch incision was made in the skin. The skin was then separated from the muscle tissue and the implant inserted at this site. The incision was then sutured.
Each animal of a third group of four female CD rats from the same source was subcutaneously injected with 0.5 cc of an 0.5% hydroxy propylcellulose solution containing an amount of the same radioactiviely labelled prednisolone approximately equivalent to that contained in the implant devices (i.e., 1 mg prednisolone/rat).
All of the animals were housed in metabolic cages. The radioactivities in the urines collected were measured by the standard procedure of scintillation counting, and from these measurements values of disintegrations per minute (DPM) were calculated. Radioactivities were thus measured every 24 hours for the first four days and then for an additional 72 hour level to complete a week of testing.
The average DPM values obtained for the two groups of implanted rats (average dosage of 1.5 mg/rat) and the one group of control rats (average dosage of 1.0 mg/rat) are given in Table 1. During the first day a number of rats escaped from their cages so that the average figures given are for fewer than the total number of animals in each group.

SMILES: O=C1CC[C@@]2(O)[C@H]3Cc4ccc(O)c5c4[C@@]2(CCN3CC2CC2)[C@H]1O5 [naltrexone]
- solubility [1]: ~4600 µg/mL

SMILES: C[C@]12C=CC(=O)C=C1CC[C@@H]1[C@@H]2[C@@H](O)C[C@@]2(C)[C@H]1CC[C@]2(O)C(=O)CO [prednisolone]
- Tritium in urine of rats ([2]; 0-24 h): 33,038 DPM
- Tritium in urine of rats ([2]; 24-48 h): 4,424 DPM
- Tritium in urine of rats ([2]; 48-72 h): 3,335 DPM
- Tritium in urine of rats ([2]; 72-96 h): 86 DPM
- Tritium in urine of rats ([2]; 96-168 h, minus values indicate noise): -248 DPM
- excretion / drug release in words ([2]; implants to one week, control first 24 h and end of fourth day): very high excretion rates in the first 24 hours; also recorded: practically no excretion of radioactive material
